In PubChem BioAssay AID248 (DTP/NCI, 2004):
Inconclusive results and toxic doses are left out. No stated cut-off is given here; in the data, active means T/C of 150% or more; inactive means T/C below 125%. Square brackets hold non-standard residues; d marks the D form. Peptide text beside a SMILES is read from it. ξ: configuration not given here. ξE = NC(CCC(=O)O)C(=O)O

Tested on: L1210 leukemia ip in BDF1 mice, survival T/C
Test: NCI In Vivo Anticancer Drug Screen. Data for tumor model L1210 Leukemia (intraperitoneal) in B6D2F1 (BDF1) mice
Details: endpoint: mean survival time, higher = longer survival
Summary of the method: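 Each compound was tested against a transplantable tumor grown in mice. The endpoint was survival, with treated animals benchmarked against vehicle controls as a simple ratio.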

[1] = dose: 25.0 mg/kg/injection, schedule: Q01DX009 (ip), vehicle: Klucel (hydroxypropylcellulose) (HPC)
[2] = dose: 50.0 mg/kg/injection, schedule: Q01DX009 (ip), vehicle: Klucel (hydroxypropylcellulose) (HPC)
[3] = dose: 50.0 mg/kg/injection, schedule: Q04DX003 (ip), vehicle: Klucel (hydroxypropylcellulose) (HPC)
[4] = dose: 100.0 mg/kg/injection, schedule: Q04DX003 (ip), vehicle: saline
[5] = dose: 100.0 mg/kg/injection, schedule: Q04DX003 (ip), vehicle: saline with Tween-80
[6] = dose: 200.0 mg/kg/injection, schedule: Q04DX003 (ip), vehicle: saline with Tween-80
[7] = dose: 100.0 mg/kg/injection, schedule: Q01DX001 (ip), vehicle: carboxymethylcellulose (CMC)
[8] = dose: 200.0 mg/kg/injection, schedule: Q01DX001 (ip), vehicle: carboxymethylcellulose (CMC)
[9] = dose: 400.0 mg/kg/injection, schedule: Q01DX001 (ip), vehicle: carboxymethylcellulose (CMC)
[10] = dose: 100.0 mg/kg/injection, schedule: Q04DX003 (ip), vehicle: Klucel (hydroxypropylcellulose) (HPC)

Measured: T/C

S=P(c1ccccc1)(c1ccccc1)N1CCCCC1
inactive: dose: 100.0 mg/kg/injection, schedule: Q04DX002 (ip), vehicle: saline with Tween-80 96 % of control | dose: 200.0 mg/kg/injection, schedule: Q04DX002 (ip), vehicle: saline with Tween-80 93 % of control | dose: 400.0 mg/kg/injection, schedule: Q04DX002 (ip), vehicle: saline with Tween-80 93 % of control

CCCC(=O)N(C(=O)CCC)c1cc2c3c(c1)CCCN3CCC2
inactive: dose: 12.5 mg/kg/injection, schedule: Q04DX003 (ip), vehicle: Klucel (hydroxypropylcellulose) (HPC) 96 % of control | [1] 95 % of control | dose: 25.0 mg/kg/injection, schedule: Q04DX003 (ip), vehicle: Klucel (hydroxypropylcellulose) (HPC) 93 % of control | [2] 92 % of control | [3] 95 % of control | [4] 93 % of control

OC1CC2C3CCC(C3)C2C1O (centres undefined)
inactive: [5] 106 % of control | [6] 90 % of control

CCOC(=O)c1cnc(=O)n(Cc2ccccc2)c1N
inactive: dose: 100.0 mg/kg/injection, schedule: Q04DX002 (ip), vehicle: other 98 % of control | dose: 200.0 mg/kg/injection, schedule: Q04DX002 (ip), vehicle: other 95 % of control | dose: 400.0 mg/kg/injection, schedule: Q04DX002 (ip), vehicle: other 98 % of control

COc1cccc(CNc2ccc(C)c(Cl)c2)c1OC
inactive: dose: 100.0 mg/kg/injection, schedule: Q01DX009 (ip), vehicle: gum acacia 99 % of control | dose: 100.0 mg/kg/injection, schedule: Q04DX003 (ip), vehicle: gum acacia 104 % of control | dose: 200.0 mg/kg/injection, schedule: Q01DX009 (ip), vehicle: gum acacia 108 % of control | dose: 200.0 mg/kg/injection, schedule: Q04DX003 (ip), vehicle: gum acacia 97 % of control | dose: 400.0 mg/kg/injection, schedule: Q01DX009 (ip), vehicle: gum acacia 87 % of control | dose: 400.0 mg/kg/injection, schedule: Q04DX003 (ip), vehicle: gum acacia 90 % of control

CCOC(=O)Nc1cc(NC(c2ccccc2)c2ccccc2)c([N+](=O)[O-])c(N)n1
inactive: [7] 91 % of control | [8] 91 % of control | [9] 89 % of control

O=C(Nc1cccc(C2=NCC(O)CN2)c1)c1ccc(C(=O)Nc2cccc(C3=NCC(O)CN3)c2)c(Cl)c1 (centres undefined)
inactive: dose: 6.25 mg/kg/injection, schedule: Q01DX Z (ip), vehicle: water 95 % of control

O=Ic1ccccc1
inactive: [1] 103 % of control | [2] 98 % of control | [3] 93 % of control | [10] 89 % of control

NC(CCC(=O)O)C(=O)NCC(=O)O (centres undefined) (H-[ξE]-Gly-OH)
inactive: dose: 12.5 mg/kg/injection, schedule: Q04DX002 (ip), vehicle: saline 96 % of control | dose: 25.0 mg/kg/injection, schedule: Q04DX002 (ip), vehicle: saline 102 % of control | dose: 50.0 mg/kg/injection, schedule: Q04DX002 (ip), vehicle: saline 90 % of control

CC(=O)N/N=C(/C)c1cccs1
inactive: dose: 100.0 mg/kg/injection, schedule: Q01DX001 (ip), vehicle: saline 103 % of control | dose: 200.0 mg/kg/injection, schedule: Q01DX001 (ip), vehicle: saline 109 % of control | dose: 400.0 mg/kg/injection, schedule: Q01DX001 (ip), vehicle: saline 100 % of control

CC1(C)COC(C2CC(=O)c3ccccc3C2)=N1 (centres undefined)
inactive: dose: 50.0 mg/kg/injection, schedule: Q01DX009 (ip), vehicle: saline with Tween-80 94 % of control | dose: 50.0 mg/kg/injection, schedule: Q04DX003 (ip), vehicle: saline 97 % of control | dose: 100.0 mg/kg/injection, schedule: Q01DX009 (ip), vehicle: saline with Tween-80 107 % of control | [4] 92 % of control | dose: 200.0 mg/kg/injection, schedule: Q01DX009 (ip), vehicle: saline with Tween-80 100 % of control | dose: 200.0 mg/kg/injection, schedule: Q04DX003 (ip), vehicle: saline 99 % of control | dose: 400.0 mg/kg/injection, schedule: Q01DX009 (ip), vehicle: saline with Tween-80 107 % of control | dose: 400.0 mg/kg/injection, schedule: Q04DX003 (ip), vehicle: saline 91 % of control

COC(=O)c1cc(Cl)cc(C(=O)OC)c1
inactive: [5] 96 % of control | [6] 93 % of control | dose: 400.0 mg/kg/injection, schedule: Q04DX003 (ip), vehicle: saline with Tween-80 93 % of control

NC(=O)Nc1cccc(C(=O)O)c1
inactive: dose: 100.0 mg/kg/injection, schedule: Q01DX009 (ip), vehicle: Klucel (hydroxypropylcellulose) (HPC) 89 % of control | [10] 92 % of control | dose: 200.0 mg/kg/injection, schedule: Q01DX009 (ip), vehicle: Klucel (hydroxypropylcellulose) (HPC) 87 % of control | dose: 200.0 mg/kg/injection, schedule: Q04DX003 (ip), vehicle: Klucel (hydroxypropylcellulose) (HPC) 92 % of control | dose: 400.0 mg/kg/injection, schedule: Q01DX009 (ip), vehicle: Klucel (hydroxypropylcellulose) (HPC) 87 % of control | dose: 400.0 mg/kg/injection, schedule: Q04DX003 (ip), vehicle: Klucel (hydroxypropylcellulose) (HPC) 96 % of control

Nc1c(Br)cc(Br)c2[nH]c(=O)c3ccccc3c12
inactive: [7] 104 % of control | [8] 96 % of control | [9] 98 % of control
